# Measurements as given in ChEMBL document CHEMBL5252509, “In depth analysis of kinase cross screening data to identify chemical starting points for inhibition of the Nek family of kinases” (Medchemcomm, 2018).
# Legend:
# [1] = molecular target: T1, Serine/threonine-protein kinase Nek1 (Homo sapiens) (UniProt Q96PY6); experiment: Inhibition of NEK1 (unknown origin) at 10 uM relative to control
# T1 sequence (whole entry): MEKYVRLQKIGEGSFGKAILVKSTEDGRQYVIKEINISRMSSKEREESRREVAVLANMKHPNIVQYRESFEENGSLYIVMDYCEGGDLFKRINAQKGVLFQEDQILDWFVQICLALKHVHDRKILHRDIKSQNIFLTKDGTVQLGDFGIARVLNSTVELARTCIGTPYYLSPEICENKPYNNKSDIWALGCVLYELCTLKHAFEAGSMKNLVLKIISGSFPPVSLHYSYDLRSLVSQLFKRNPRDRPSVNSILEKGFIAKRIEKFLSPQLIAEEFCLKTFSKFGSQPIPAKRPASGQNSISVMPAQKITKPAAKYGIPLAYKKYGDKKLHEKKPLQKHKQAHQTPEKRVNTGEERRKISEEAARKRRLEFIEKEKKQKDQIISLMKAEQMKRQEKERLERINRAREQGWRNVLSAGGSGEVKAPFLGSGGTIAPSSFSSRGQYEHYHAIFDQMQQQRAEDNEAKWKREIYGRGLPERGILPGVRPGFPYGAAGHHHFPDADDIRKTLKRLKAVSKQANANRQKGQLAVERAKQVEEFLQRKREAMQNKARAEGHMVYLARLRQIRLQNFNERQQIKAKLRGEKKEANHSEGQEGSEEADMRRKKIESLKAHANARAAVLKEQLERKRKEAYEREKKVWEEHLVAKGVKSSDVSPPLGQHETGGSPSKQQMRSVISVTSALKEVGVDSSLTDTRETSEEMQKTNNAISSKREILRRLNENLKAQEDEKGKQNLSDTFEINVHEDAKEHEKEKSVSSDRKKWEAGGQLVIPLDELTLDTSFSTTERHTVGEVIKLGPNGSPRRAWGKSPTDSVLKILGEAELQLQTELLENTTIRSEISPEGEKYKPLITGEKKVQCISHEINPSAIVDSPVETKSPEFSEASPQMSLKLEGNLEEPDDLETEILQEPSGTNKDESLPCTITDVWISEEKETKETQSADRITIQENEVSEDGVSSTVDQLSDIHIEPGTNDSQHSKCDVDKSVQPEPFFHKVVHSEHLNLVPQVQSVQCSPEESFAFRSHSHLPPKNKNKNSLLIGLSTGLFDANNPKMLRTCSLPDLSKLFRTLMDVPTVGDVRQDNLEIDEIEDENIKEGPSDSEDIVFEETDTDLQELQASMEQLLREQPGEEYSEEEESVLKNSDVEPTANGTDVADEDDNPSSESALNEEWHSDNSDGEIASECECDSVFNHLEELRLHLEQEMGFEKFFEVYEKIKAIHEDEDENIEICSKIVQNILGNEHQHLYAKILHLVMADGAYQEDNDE
# [2] = molecular target: T2, Serine/threonine-protein kinase Nek3 (Homo sapiens) (UniProt P51956); experiment: Inhibition of NEK3 (unknown origin) at 10 uM relative to control
# T2 sequence (whole entry): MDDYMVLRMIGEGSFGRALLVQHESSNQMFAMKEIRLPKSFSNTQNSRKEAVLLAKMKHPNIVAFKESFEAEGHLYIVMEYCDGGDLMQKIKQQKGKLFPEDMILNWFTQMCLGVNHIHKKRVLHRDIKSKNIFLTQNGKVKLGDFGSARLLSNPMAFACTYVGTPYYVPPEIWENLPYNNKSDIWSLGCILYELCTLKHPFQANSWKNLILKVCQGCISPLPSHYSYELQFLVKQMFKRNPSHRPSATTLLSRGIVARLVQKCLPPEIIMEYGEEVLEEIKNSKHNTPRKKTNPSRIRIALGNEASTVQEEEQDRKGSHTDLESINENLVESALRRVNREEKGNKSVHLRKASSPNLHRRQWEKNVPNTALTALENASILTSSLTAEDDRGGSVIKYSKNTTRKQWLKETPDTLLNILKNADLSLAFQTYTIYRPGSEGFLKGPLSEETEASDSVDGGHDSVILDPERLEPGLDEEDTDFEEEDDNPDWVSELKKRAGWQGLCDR
# [3] = molecular target: T3, Serine/threonine-protein kinase Nek9 (Homo sapiens) (UniProt Q8TD19); experiment: Inhibition of NEK9 (unknown origin) at 10 uM relative to control
# T3 sequence (whole entry): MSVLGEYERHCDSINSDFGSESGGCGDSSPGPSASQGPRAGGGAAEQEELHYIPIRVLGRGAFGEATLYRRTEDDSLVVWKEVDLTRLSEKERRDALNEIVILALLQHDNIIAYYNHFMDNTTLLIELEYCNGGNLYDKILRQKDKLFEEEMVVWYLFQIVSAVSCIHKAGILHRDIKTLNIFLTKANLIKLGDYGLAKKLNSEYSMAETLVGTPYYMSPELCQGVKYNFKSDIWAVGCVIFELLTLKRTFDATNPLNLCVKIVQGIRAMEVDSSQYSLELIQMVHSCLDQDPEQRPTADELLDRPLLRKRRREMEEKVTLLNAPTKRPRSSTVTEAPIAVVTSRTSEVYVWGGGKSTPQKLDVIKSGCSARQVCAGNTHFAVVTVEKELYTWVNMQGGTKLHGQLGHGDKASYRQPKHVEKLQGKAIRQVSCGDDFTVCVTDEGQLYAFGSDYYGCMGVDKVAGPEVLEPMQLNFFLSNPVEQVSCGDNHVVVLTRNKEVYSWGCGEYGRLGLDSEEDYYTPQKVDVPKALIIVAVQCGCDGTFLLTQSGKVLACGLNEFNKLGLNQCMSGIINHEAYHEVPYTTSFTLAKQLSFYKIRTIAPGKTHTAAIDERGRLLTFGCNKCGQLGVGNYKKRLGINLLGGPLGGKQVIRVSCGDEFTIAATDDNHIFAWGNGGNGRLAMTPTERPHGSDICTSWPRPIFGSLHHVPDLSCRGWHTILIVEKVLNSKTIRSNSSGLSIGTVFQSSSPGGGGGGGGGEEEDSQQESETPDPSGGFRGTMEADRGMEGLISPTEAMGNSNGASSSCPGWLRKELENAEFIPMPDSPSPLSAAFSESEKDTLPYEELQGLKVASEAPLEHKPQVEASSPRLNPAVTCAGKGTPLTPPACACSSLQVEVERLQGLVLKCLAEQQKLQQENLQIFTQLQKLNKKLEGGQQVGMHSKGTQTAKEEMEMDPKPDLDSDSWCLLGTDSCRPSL
SMILES,% control [1] [%],% control [2] [%],% control [3] [%]
CN(C)C/C=C/C(=O)Nc1ccc(C(=O)Nc2cccc(Nc3nccc(-c4cccnc4)n3)c2)cc1,63,17,22
CN(C)C/C=C/C(=O)Nc1cccc(C(=O)Nc2ccc(Nc3nccc(-c4cccnc4)n3)cc2)c1,77,6.8,48
Fc1cc(-c2cc[nH]/c(=N/c3ccc(-n4cnc(N5CCOCC5)n4)cc3)n2)cc(N2CCOCC2)c1,57,0.8,63
O=C1NC(=O)/C(=C/c2ccc3nccc(-c4ccncc4)c3c2)S1,47,77,95

# Further lines, with some results ahead:
% control [1] [%],% control [2] [%],SMILES,% control [3] [%]
81,73,Cc1cc(NC(=O)c2cccc(NC(=O)/C=C/CN(C)C)c2)ccc1Nc1nccc(-c2cccnc2)n1,100
100,99,Cc1ccc(NC(=O)c2ccc(NC(=O)/C=C/CN(C)C)cc2)cc1Nc1nccc(-c2cccnc2)n1,100
100,100,CN(C)C/C=C/C(=O)Nc1cccc(C(=O)Nc2ccc(Nc3nccc(/C(C#N)=C4\Nc5ccccc5S4)n3)cc2)c1,63
100,99,CN(C)C/C=C/C(=O)Nc1cccc(C(=O)Nc2ccc(Nc3nccc(-c4c(-c5ccccc5)nn5ccccc45)n3)cc2)c1,100
